PubChem BioAssay (NCI)
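Values below derive from 48-hour exposures of cells grown in 96-well plates, with endpoints linearly interpolated between the two concentrations bracketing the appropriate inhibition level. Definition used: TGI = concentration required for complete inhibition of growth.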

How the values were obtained:
Assay in all cases: NCI tumour cell line growth inhibition, 48 h
MDA-N = test system: MDA-N
786-0 renal = test system: 786-0 renal
KM20L2 colon = test system: KM20L2 colon
LXFL 529 NSCLC = test system: LXFL 529 NSCLC
XF 498 CNS = test system: XF 498 CNS
DMS 273 small cell lung = test system: DMS 273 small cell lung
P388/ADR leukemia = test system: P388/ADR leukemia
SN12K1 renal = test system: SN12K1 renal

SMILES | TGI (MDA-N) [µM] | TGI (786-0 renal) [µM] | TGI (KM20L2 colon) [µM] | TGI (LXFL 529 NSCLC) [µM] | TGI (XF 498 CNS) [µM] | TGI (DMS 273 small cell lung) [µM] | TGI (P388/ADR leukemia) [µM] | TGI (SN12K1 renal) [µM]
O=C1OCc2cc3cc4c(cc3c(-c3ccc5c(c3)OCO5)c21)OCO4 (tested in a mixture with another compound) | 19.2 |  |  |  |  |  |  | 
COc1ccc(OC)c(CC(C)N)c1 (stereo not drawn) |  | > 100 | > 100 | > 100 | > 100 |  |  | 
COc1c(OC/C=C(\C)CCC=C(C)C)ccc2ccc(=O)oc12 | > 100 | > 100 |  |  |  |  |  | 
CC(C)(C)OC(=O)NC1CCC(C(C)(C)C)CC1 (stereo not drawn) |  |  | > 100 |  | > 96.5 | 99.2 | > 100 | > 100
C=CCSSCC=C | > 80.2 | > 56.5 |  |  |  |  |  | 
O=C1OC2CC=CC1C2 (stereo not drawn) |  |  | > 100 |  | > 100 | > 100 | > 100 | > 100
SC1CCCN(Cc2ccccc2)C1 (stereo not drawn) | > 100 | > 100 |  |  |  |  |  | 
O=C(/C=C/c1ccccc1)N1CCCCC1 | > 100 | > 100 |  |  |  |  |  | 
C=C1C(=O)OC2CC1CCC1(C)OC1CCC(C)=CCCC2(C)O (stereo not drawn) |  |  | 8.58 |  | 8.47 | 9.89 | 10.8 | 11.9
